In patent US6391614B1, “Auxiliary gene and protein of methicillin resistant bacteria and antagonists thereof” (priority 1995, dated 2002):
Values after ≈ are worked out from the molar mass of the structure shown. Where two headings read alike, the source gives them in different places.

Legend:
SWTD3 (RUSA315/pGCSW-3) [1] = assay: Standard disk susceptibility, transductant SWTD3; assay type: cell-based, Staphylococcus aureus; settings: SWTD3 versus recipient RUSA315; FIG. 5
Experimental: (§1) Susceptibility testing and population analysis. One colony of bacterial strain was inoculated into 5 ml of TSB (tryptic soy broth, Difco Laboratories) and incubated at 37° C. with 200 rpm rotation for overnight. Culture density (OD600) was adjusted to give a viable titer of 10^8 to 10^9 cfu/ml. Sterile swabs were dipped into the bacterial suspension and applied to TSA (tryptic soy agar, Difco Laboratories) plates without antibiotics, and 6-mm-diameter disks containing antibiotics were applied to the plates with a disk dispenser (BBL, Beckton-Dickinson and Company). The antibiotics used were as follows: […] of methicillin, 10 U of penicillin, 30 μg of cefazolin, 20 μg of ampicillin/sulbactam, 15 μg of erythromycin, 10 μg of gentamicin, 30 μg of tetracycline, 30 μg chloramphenicol, 5 μg of rifampin, and 5 μg of ciproflaxin (BBL, Becton Dickinson and Company). Diameters of inhibition zones were read after incubation at 37° C. for 24 h. To perform population analysis, aliquots of overnight cultures were spread onto TSA plates containing increasing concentrations of methicillin. CFU were determined after 48 h of incubation at 37° C. [de Lencastre et al., Antimicrob Agents Chemother. 35:632-639 (1991)].
(§2) Complementation analysis with plasmid pGCSW-3. Plasmid pGCSW-3 was transformed into S. aureus RN4220 (r-) by electroporation and the electro-transformant SWET3 was used as donor to introduce pGCSW-3 into recipients RUSA315 and RUSA12F.

SWTD5 (RUSA12F/pGCSW-3) = assay: Standard disk susceptibility, transductant SWTD5; assay type: cell-based, Staphylococcus aureus; settings: SWTD5 versus recipient RUSA12F; FIG. 5
Experimental: as §1, §2

MRSA strain COL [2] = assay: Methicillin MIC, parental highly methicillin resistant strain COL; assay type: cell-based, Staphylococcus aureus
Experimental: as §1

strain COL = settings: peptidoglycan composition; cited from earlier work
[3] = test system: mutant RUSA315 (femR315::Tn551); assay: Methicillin MIC, Tn551 insertional mutant RUSA315; assay type: cell-based; settings: Staphylococcus aureus
Experimental: as §1

four staphylococcal PBPs = settings: in vitro; cited from earlier work
[4] = test system: Tn551 insertional (auxiliary) mutants; assay: Methicillin MIC, Tn551 auxiliary mutants with intact mecA; assay type: cell-based; settings: Staphylococcus aureus, read-out: methicillin MIC
[5] = test system: staphylococci without the mecA gene; settings: bacteria without mecA; cited from earlier work
SWTD3 (RUSA315/pGCSW-3) [6] = assay: Population analysis on methicillin-containing TSA plates, SWTD3; assay type: cell-based, Staphylococcus aureus; settings: SWTD3, data not shown
Experimental: as §1

[7] = test system: Tn551 insertional (auxiliary) mutants; settings: cited from earlier work
MRSA strain COL [8] = settings: cited from earlier work
[9] = test system: mecA Tn551 transposon mutant; settings: Tn551 inserted into mecA; cited from earlier work

## Cc1nnc(SCC2=C(C(=O)O)N3C(=O)[C@@H](NC(=O)Cn4cnnn4)[C@H]3SC2)s1 [cefazoline, cefazolin]
SWTD3 (RUSA315/pGCSW-3) [1]
  antimicrobial susceptibility (disk, inhibition zone): restored resistance
SWTD5 (RUSA12F/pGCSW-3)
  antimicrobial susceptibility (disk, inhibition zone): restored resistance

## COc1cccc(OC)c1C(=O)N[C@@H]1C(=O)N2[C@@H]1SC(C)(C)[C@@H]2C(=O)O [methicillin]
MRSA strain COL [2]; Staphylococcus aureus, MRSA, read-out: methicillin MIC
  MIC: 1600 µg/mL (≈ 4210 µM)
MRSA strain COL [2]; parental MRSA strain COL
  methicillin MIC: 1600 µg/mL
Strain COL
  critical concentration at which a new cell wall synthetic machinery, presumably PBP2A, takes over: about 5 mg/L
[3]
  MIC: 12 to 25 µg/mL (≈ 31.5 to 65.7 µM)
[3]; RUSA315, Tn551 insert Ω720, read-out: methicillin MIC
  MIC: 1.5 µg/mL (≈ 3.94 µM)
Four staphylococcal PBPs
  methicillin concentration range within which all four normal PBPs become fully acylated: 5 to 10 mg/L
[4]
  MIC: 1.5 to 200 µg/mL (≈ 3.94 to 526 µM)
SWTD3 (RUSA315/pGCSW-3) [1]
  antimicrobial susceptibility (disk, inhibition zone): restored resistance
[5]
  methicillin MIC: 1 to 2 µg/mL
SWTD3 (RUSA315/pGCSW-3) [6]
  level of methicillin resistance by population analysis: same level of methicillin resistance as the parental Mc^r strain COL
SWTD5 (RUSA12F/pGCSW-3)
  antimicrobial susceptibility (disk, inhibition zone): restored resistance
[7]; Tn551 mutants still producing normal amounts of PBP2A
  methicillin MIC: 3 µg/mL
[7]; inactivation of auxiliary genes, PBP2A present
  MIC: 3 mg methicillin per liter
MRSA strain COL [8]; highly resistant strain COL
  methicillin MIC: 1600 mg/L
MRSA strain COL [8]; parental bacterium before Tn551 inactivation
  MIC: 1600 µg/mL (≈ 4210 µM)
[9]
  MIC: about 4 μg/ml

## ampicillin/sulbactam [ampicillinisulbactam]
SWTD3 (RUSA315/pGCSW-3) [1]
  antimicrobial susceptibility (disk, inhibition zone): restored resistance
SWTD5 (RUSA12F/pGCSW-3)
  antimicrobial susceptibility (disk, inhibition zone): restored resistance

## penicillin
SWTD3 (RUSA315/pGCSW-3) [1]
  antimicrobial susceptibility (disk, inhibition zone): restored resistance
SWTD5 (RUSA12F/pGCSW-3)
  antimicrobial susceptibility (disk, inhibition zone): restored resistance
